Source: ChEMBL document CHEMBL1121631, “Quantitative structure-activity relationships by distance geometry: systematic analysis of dihydrofolate reductase inhibitors” (J Med Chem, 1980)

System: Dihydrofolate reductase (Enterococcus faecium)

SMILES: CCCCOC(=O)c1ccc(NCc2ccc3nc(N)nc(N)c3c2Cl)cc1
- Delta G: -11.4 kcal

SMILES: Nc1nc(S)nc2ccc(Sc3ccc4ccccc4c3)cc12
- Delta G: -7.4 kcal

SMILES: Nc1nc(O)c2cc([S+]([O-])c3ccc4ccccc4c3)ccc2n1 (stereo not drawn)
- Delta G: -8.2 kcal

SMILES: Cc1c(NCc2ccc(C(=O)O)cc2)ccc2nc(N)nc(O)c12
- Delta G: -6.5 kcal

SMILES: CCOC(=O)c1ccc(CNc2ccc3nc(N)nc(O)c3c2C)cc1
- Delta G: -7.1 kcal

SMILES: Nc1nc(N)c2c(Cl)c(CNc3ccc(C(=O)O)cc3)ccc2n1
- Delta G: -12.3 kcal

SMILES: Nc1nc(O)c2c(Sc3ccc4ccccc4c3)cccc2n1
- Delta G: -7.4 kcal

SMILES: Nc1nc(N)c2c(Sc3ccc4ccccc4c3)cccc2n1
- Delta G: -10.9 kcal

SMILES: Nc1nc(S)c2cc(Sc3ccc4ccccc4c3)ccc2n1
- Delta G: -9.3 kcal

SMILES: Nc1nc(N)c2c(/C=C\c3ccc4ccccc4c3)cccc2n1
- Delta G: -11.1 kcal

SMILES: CCOC(=O)c1ccc(CNc2ccc3nc(N)nc(O)c3c2Cl)cc1
- Delta G: -9.3 kcal

SMILES: Cc1c(CNc2ccc(C(=O)O)cc2)ccc2nc(N)nc(N)c12
- Delta G: -11.8 kcal

SMILES: Nc1nc(N)c2cc(Sc3ccc(Cl)c(Cl)c3)ccc2n1
- Delta G: -12.2 kcal

SMILES: CCOC(=O)c1ccc(NCc2ccc3nc(N)nc(N)c3c2Cl)cc1
- Delta G: -12.8 kcal

SMILES: Nc1ncnc2ccc([S+]([O-])c3ccc4ccccc4c3)cc12 (stereo not drawn)
- Delta G: -7.2 kcal

SMILES: Nc1nc(O)c2cc(CNc3ccc(C(=O)O)cc3)ccc2n1
- Delta G: -8.8 kcal

SMILES: Oc1nc(S)nc2ccc(Sc3ccc4ccccc4c3)cc12
- Delta G: -6.2 kcal

SMILES: Nc1nc(N)c2c(/C=C/c3ccc4ccccc4c3)cccc2n1
- Delta G: -10.7 kcal

SMILES: CCOC(=O)c1ccc(CNc2ccc3nc(N)nc(N)c3c2)cc1
- Delta G: -11 kcal

SMILES: Nc1nc(N)c2c(CCc3ccc4ccccc4c3)cccc2n1
- Delta G: -11.9 kcal

SMILES: Nc1nc(S)c2cc(S(=O)(=O)c3ccc4ccccc4c3)ccc2n1
- Delta G: -8 kcal

SMILES: Nc1nc(N)c2cc([S+]([O-])c3ccc4ccccc4c3)ccc2n1 (stereo not drawn)
- Delta G: -12.8 kcal

SMILES: Nc1nc(N)c2cc(Sc3cccc(C(F)(F)F)c3)ccc2n1
- Delta G: -13.4 kcal

SMILES: CCOC(=O)c1ccc(CNc2ccc3nc(N)nc(N)c3c2C)cc1
- Delta G: -13.1 kcal

SMILES: Nc1ncnc2ccc(S(=O)(=O)c3ccc4ccccc4c3)cc12
- Delta G: -5.8 kcal

SMILES: CCOC(=O)c1ccc(CNc2ccc3nc(N)nc(N)c3c2Cl)cc1
- Delta G: -12.2 kcal

SMILES: Nc1nc(O)c2c(S(=O)(=O)c3ccc4ccccc4c3)cccc2n1
- Delta G: -9 kcal

SMILES: CCCCOC(=O)c1ccc(NCc2ccc3nc(N)nc(N)c3c2)cc1
- Delta G: -11.2 kcal

SMILES: Nc1nc(O)c2cc(Sc3ccc4ccccc4c3)ccc2n1
- Delta G: -10.2 kcal

SMILES: Nc1nc(N)c2c([S+]([O-])c3ccc(Cl)c(Cl)c3)cccc2n1 (stereo not drawn)
- Delta G: -7.3 kcal

SMILES: Nc1ncnc2ccc(Sc3ccc4ccccc4c3)cc12
- Delta G: -6.5 kcal

SMILES: Nc1nc(O)c2cc(Sc3ccc(Cl)c(Cl)c3)ccc2n1
- Delta G: -9.1 kcal

SMILES: Nc1nc(N)c2c(S(=O)(=O)c3ccc4ccccc4c3)cccc2n1
- Delta G: -6.5 kcal

SMILES: Sc1nc(S)c2cc(Sc3ccc4ccccc4c3)ccc2n1
- Delta G: -6 kcal

SMILES: CCOC(=O)c1ccc(NCc2ccc3nc(N)nc(N)c3c2C)cc1
- Delta G: -12.3 kcal

SMILES: CCOC(=O)c1ccc(CNc2ccc3nc(N)nc(O)c3c2)cc1
- Delta G: -8.6 kcal

SMILES: CCCCOC(=O)c1ccc(NCc2ccc3nc(N)nc(N)c3c2C)cc1
- Delta G: -12.1 kcal

SMILES: CCOC(=O)c1ccc(NCc2ccc3nc(N)nc(N)c3c2)cc1
- Delta G: -11.4 kcal

SMILES: Nc1nc(N)c2c(Sc3ccc(Cl)c(Cl)c3)cccc2n1
- Delta G: -9.9 kcal

SMILES: Nc1nc(O)c2cc(S(=O)(=O)c3ccc(Cl)c(Cl)c3)ccc2n1
- Delta G: -8.2 kcal

SMILES: O=c1[nH]c(=O)c2cc(Sc3ccc4ccccc4c3)ccc2[nH]1
- Delta G: -6.9 kcal

SMILES: Nc1nc(N)c2c([S+]([O-])c3ccc4ccccc4c3)cccc2n1 (stereo not drawn)
- Delta G: -6.9 kcal

SMILES: Nc1nc(N)c2c(S(=O)(=O)c3ccc(Cl)c(Cl)c3)cccc2n1
- Delta G: -9 kcal

SMILES: Nc1nc(O)c2cc(S(=O)(=O)c3ccc4ccccc4c3)ccc2n1
- Delta G: -9.6 kcal

SMILES: Nc1nc(N)c2cc(S(=O)(=O)c3ccc4ccccc4c3)ccc2n1
- Delta G: -12.4 kcal

SMILES: Nc1nc(N)c2cc(CNc3ccc(C(=O)O)cc3)ccc2n1
- Delta G: -13 kcal

SMILES: O=c1[nH]c(=S)c2cc(Sc3ccc4ccccc4c3)ccc2[nH]1
- Delta G: -6.9 kcal

SMILES: Cc1c(CNc2ccc(C(=O)NC(CC(=O)O)C(=O)O)cc2)ccc2nc(N)nc(N)c12 (stereo not drawn)
- Delta G: -12.7 kcal

SMILES: Nc1nc(N)c2c(CSc3ccc(Cl)cc3)cccc2n1
- Delta G: -10.9 kcal

SMILES: Nc1nc(N)c2cc(S(=O)(=O)c3ccc(Cl)c(Cl)c3)ccc2n1
- Delta G: -13.4 kcal

SMILES: CCOC(=O)c1ccc(NCc2ccc3nc(N)nc(O)c3c2)cc1
- Delta G: -10.6 kcal

SMILES: Nc1nc(O)nc2ccc(Sc3ccc4ccccc4c3)cc12
- Delta G: -6.9 kcal

SMILES: Nc1nc(O)c2cc(NCc3ccc(C(=O)O)cc3)ccc2n1
- Delta G: -7.2 kcal
